Key:
[1] = Water adsorption isotherm (water adsorption level, BELSORP-18 analyzer); type: physicochemical; details: constant temperature of 25° C.; crystal dried overnight in vacuum at 60° C.; results in FIGS. 3 and 4; hydrochloride
Protocol: Preparation of Water Adsorption Isotherm (Water Adsorption Constant Temperature Line):
After the Type IV crystal recovered above was dried overnight in vacuum at 60° C., the water adsorption level of the crystal was measured at a constant temperature of 25° C. by a fully automatic water adsorption analyzer (BELSORP-18: Nippon Bell K.K.) (see Mitsuiki et al., J. Agric. Food Chem., vol.46, No. 9, pages 3528-3534 (1998)).
The water adsorption level of the Type I crystal was also measured in the same manner as above.

[2] = X ray powder diffraction pattern of the crystal under humidity (crystal structure stability); type: physicochemical; details: relative humidity of 80% or less

| SMILES | water (water vapor) adsorption level versus relative humidity [1] | change of X ray powder diffraction pattern / crystal structure [2] |
| --- | --- | --- |
| COc1ccc(/C=C\c2cc(OC)c(OC)c(OC)c2)cc1NC(=O)[C@@H](N)CO.Cl [Type I crystal, (Z)-N-[2-methoxy-5-[2-(3,4,5-trimethoxyphenyl)vinyl]phenyl]-L-serinamide hydrochloride, reference compound] | adsorbed water in a degree roughly proportional to relative humidity |  |
| COc1ccc(/C=C\c2cc(OC)c(OC)c(OC)c2)cc1NC(=O)[C@@H](N)CO.Cl [Type IV crystal, (Z)-N-[2-methoxy-5-[2-(3,4,5-trimethoxyphenyl)vinyl]phenyl]-L-serinamide hydrochloride] | adsorbed much less water up to around a relative humidity of 80% | did not change |

— patent US20030065035A1, “Novel stilbene derivative crystal and method for producing the same” (AJINOMOTO CO. INC, priority 2000, published 2003)
